US20170371042A1, “CONTRAST AGENT FOR OPTICAL IMAGING, USE THEREOF AND APPARATUS USING THE SAME” (KYUNGPOOK NATIONAL UNIVERSITY INDUSTRY- ACADEMIC …, priority 2009, published 2017)

Key:
[1] = normal mouse (C3H/HeN), 500 μCi intraperitoneally, 40 minutes post-injection
Experimental: 500 mCi of ^124I was injected intraperitoneally into a normal mouse (C3H/HeN, Orient Bio Inc., Korea). 40 minutes after the injection, a luminescence image was obtained by scanning the mouse for 1 minute in the lying position.

[2] = cited from earlier work; for Decay mode EC (%): electron capture; for Ece mean: conversion electron
[3] = Luminescence imaging using [^18F]FDG; assay type: in vivo; conditions: BALB/c mouse bearing luciferase-transfected 4T1 tumour cells, 1 hour after injecting 409 μCi via tail vein, no luciferin
Experimental: A BALB/c mouse with a luciferase-transfected 4T1 tumor was injected with […] of [^18F]FDG via the tail vein. One hour after the injection, the mouse was scanned for 3 minutes in the prone position using IVIS 200. […] The brain (red arrow) and the brown fat (white arrow) are clearly visualized.

Molecule | uptake seen in luminescence image [1] | half-life [2] | Decay mode EC (%) [2] | Ece mean [2] [keV] | luminescence signal in mouse image [3] | Decay mode IT (%) ([2]; isomeric transition)
[124I-].[Na+] [^124I, [^124I]NaI] | high uptake in the thyroid and bladder region | (4.2 d) | (77) % |  |  | 
[68Ga+3].[Cl-].[Cl-].[Cl-] [^68Ga, [^68Ga]GaCl3] |  | (68 min) | (11) % |  |  | 
[Cl][111In]([Cl])[Cl] [^111In, [^111In]InCl3] |  | (2.8 d) | (100) % | 176 |  | 
OC[C@H]1OC(O)[C@H]([18F])[C@@H](O)[C@@H]1O (stereo partly shown) [^18F, [^18F]FDG] |  | (110 min) | (3) % |  | intense signal was detected in the brain and brown fat area on the shoulder | 
[^99mTc]TcO4^− |  | (6.0 h) |  | 14 |  | (100) %
[131I-].[Na+] [^131I, [^131I]NaI] |  | (8.0 d) |  |  |  | 
[64Cu+2].[Cl-].[Cl-] [^64Cu, [^64Cu]CuCl2] |  | (12.7 h) |  |  |  | 
